“And” between values parts separate entries of the source, which are not always exact repeats. Equal values may be shown once. Inconclusive results and toxic doses are left out.
Test system: L1210 leukemia ip in BDF1 mice, survival T/C
Experiment: NCI In Vivo Anticancer Drug Screen. Data for tumor model L1210 Leukemia (intraperitoneal) in B6D2F1 (BDF1) mice
Settings: endpoint: mean survival time, higher = longer survival
Outline: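 In this screen, tumor-bearing mice given compound are compared to those given vehicle, and their survival values are reported as a treated-to-control quotient.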

[1] = dose: 100.0 mg/kg/injection, schedule: Q01DX001 (ip), vehicle: saline
[2] = dose: 200.0 mg/kg/injection, schedule: Q01DX001 (ip), vehicle: saline
[3] = dose: 400.0 mg/kg/injection, schedule: Q01DX001 (ip), vehicle: saline
[4] = dose: 100.0 mg/kg/injection, schedule: Q01DX009 (ip), vehicle: Klucel (hydroxypropylcellulose) (HPC)
[5] = dose: 200.0 mg/kg/injection, schedule: Q01DX009 (ip), vehicle: Klucel (hydroxypropylcellulose) (HPC)
[6] = dose: 75.0 mg/kg/injection, schedule: Q01DX001 (ip), vehicle: other
[7] = dose: 150.0 mg/kg/injection, schedule: Q01DX001 (ip), vehicle: other
[8] = dose: 100.0 mg/kg/injection, schedule: Q01DX001 (ip), vehicle: Klucel (hydroxypropylcellulose) (HPC)
[9] = dose: 50.0 mg/kg/injection, schedule: Q01DX009 (ip), vehicle: saline with Tween-80
[10] = dose: 100.0 mg/kg/injection, schedule: Q01DX001 (ip), vehicle: saline with Tween-80
[11] = dose: 100.0 mg/kg/injection, schedule: Q04DX002 (ip), vehicle: saline with Tween-80
[12] = dose: 100.0 mg/kg/injection, schedule: Q04DX003 (ip), vehicle: saline with Tween-80
[13] = dose: 200.0 mg/kg/injection, schedule: Q01DX001 (ip), vehicle: saline with Tween-80
[14] = dose: 200.0 mg/kg/injection, schedule: Q04DX002 (ip), vehicle: saline with Tween-80
[15] = dose: 200.0 mg/kg/injection, schedule: Q04DX003 (ip), vehicle: saline with Tween-80
[16] = dose: 400.0 mg/kg/injection, schedule: Q01DX001 (ip), vehicle: saline with Tween-80
[17] = dose: 400.0 mg/kg/injection, schedule: Q04DX002 (ip), vehicle: saline with Tween-80
[18] = dose: 400.0 mg/kg/injection, schedule: Q04DX003 (ip), vehicle: saline with Tween-80
[19] = dose: 100.0 mg/kg/injection, schedule: Q01DX009 (ip), vehicle: saline with Tween-80
[20] = dose: 50.0 mg/kg/injection, schedule: Q01DX009 (ip), vehicle: Klucel (hydroxypropylcellulose) (HPC)
[21] = dose: 100.0 mg/kg/injection, schedule: Q04DX003 (ip), vehicle: Klucel (hydroxypropylcellulose) (HPC)
[22] = dose: 200.0 mg/kg/injection, schedule: Q04DX003 (ip), vehicle: Klucel (hydroxypropylcellulose) (HPC)
[23] = dose: 400.0 mg/kg/injection, schedule: Q04DX003 (ip), vehicle: Klucel (hydroxypropylcellulose) (HPC)

For `COc1ccc(-c2oc3cc(OC)ccc3c(=O)c2O)cc1`, the T/C (dose: 50.0 mg/kg/injection, schedule: Q01DX001 (ip), vehicle: saline) was 106 % of control, the T/C [1] was 98 % of control and the T/C [2] was 104 % of control. The T/C [3] was 98 % of control.

`[Cl][Ge]([c]1ccccc1)([c]1ccccc1)[c]1ccccc1` was tested, and the T/C [4] was 104 % of control, the T/C [5] was 102 % of control and the T/C (dose: 400.0 mg/kg/injection, schedule: Q01DX009 (ip), vehicle: Klucel (hydroxypropylcellulose) (HPC)) was 95 % of control.

With `CC/C(=C/C(F)(F)C(F)(F)C(F)(F)F)[N+](=O)[O-]` the T/C (dose: 100.0 mg/kg/injection, schedule: Q01DX001 (ip), vehicle: carboxymethylcellulose (CMC)) was 112 % of control and the T/C (dose: 200.0 mg/kg/injection, schedule: Q01DX001 (ip), vehicle: carboxymethylcellulose (CMC)) was 103 % of control.

`CCOC(=O)N(c1ccccc1)c1ccccc1` was tested, and the T/C (dose: 100.0 mg/kg/injection, schedule: Q04DX002 (ip), vehicle: Klucel (hydroxypropylcellulose) (HPC)) was 106 % of control, the T/C (dose: 200.0 mg/kg/injection, schedule: Q04DX002 (ip), vehicle: Klucel (hydroxypropylcellulose) (HPC)) was 106 % of control and the T/C (dose: 400.0 mg/kg/injection, schedule: Q04DX002 (ip), vehicle: Klucel (hydroxypropylcellulose) (HPC)) was 98 % of control.

`O=C1C2C3c4ccccc4C(C2C(=O)N1c1ccc(Cl)cc1)[n+]1ccccc13` (configuration not stated) was tested, and the T/C [6] was 96 % of control and the T/C [7] was 103 % of control.

`COC12C3C=CC4C(C=C3)C4C1C2Br` (configuration not stated) was tested, and the T/C [8] was 98 % of control, the T/C (dose: 200.0 mg/kg/injection, schedule: Q01DX001 (ip), vehicle: Klucel (hydroxypropylcellulose) (HPC)) was 103 % of control and the T/C (dose: 400.0 mg/kg/injection, schedule: Q01DX001 (ip), vehicle: Klucel (hydroxypropylcellulose) (HPC)) was 106 % of control.

With `CCCC(=O)NC1=C(N2CC2)C(=O)C(NC(=O)CCC)=C(N2CC2)C1=O` the T/C (dose: 0.13 mg/kg/injection, schedule: Q01DX010 (oral), vehicle: saline) was 104 % of control, the T/C (dose: 0.25 mg/kg/injection, schedule: Q01DX010 (oral), vehicle: saline) was 110 % of control and the T/C (dose: 0.5 mg/kg/injection, schedule: Q01DX010 (oral), vehicle: saline) was 116 % of control. For the same molecule, the T/C (dose: 1.0 mg/kg/injection, schedule: Q01DX010 (oral), vehicle: saline) was 116 % of control, the T/C (dose: 1.0 mg/kg/injection, schedule: Q01DX Z (ip), vehicle: saline) was 124 % of control and the T/C (dose: 2.0 mg/kg/injection, schedule: Q01DX Z (ip), vehicle: saline) was 166 % of control and 193 % of control. For the same molecule, the T/C (dose: 4.0 mg/kg/injection, schedule: Q01DX010 (oral), vehicle: saline) was 154 % of control and the T/C (dose: 8.0 mg/kg/injection, schedule: Q01DX Z (ip), vehicle: saline) was 100 % of control.

`Cc1cccc(NC(=S)NC(=O)CCc2ccccc2)c1C` was tested, and the T/C (dose: 25.0 mg/kg/injection, schedule: Q01DX009 (ip), vehicle: saline with Tween-80) was 94 % of control and 88 % of control, the T/C [9] was 94 % of control and 88 % of control and the T/C [10] was 95 % of control. The T/C [11] was 95 % of control and 90 % of control, the T/C [12] was 86 % of control and the T/C [13] was 98 % of control. For the same molecule, the T/C [14] was 93 % of control, the T/C [15] was 89 % of control and the T/C [16] was 97 % of control. The T/C [17] was 93 % of control and 102 % of control and the T/C [18] was 86 % of control.

For `CCCC(C)CN` (configuration not stated), the T/C [9] was 100 % of control, the T/C [19] was 104 % of control and the T/C [12] was 100 % of control. For the same molecule, the T/C [15] was 98 % of control.

In the case of `CC(=O)Nc1ccccc1C(=O)C(N)=O`, the T/C [20] is reported as 100 % of control, the T/C [4] is reported as 94 % of control and the T/C [21] is reported as 96 % of control. For the same molecule, the T/C [5] was 96 % of control, the T/C [22] was 95 % of control and the T/C [23] was 98 % of control.

In the case of `CC(O)C(O)C(O)C(O)/C=N/O` (configuration not stated), the T/C [21] is reported as 100 % of control, the T/C [22] is reported as 97 % of control and the T/C [23] is reported as 102 % of control.

With `O=C1NC2CCC(NC(=O)N1c1ccccc1)C1=C2C1` the T/C (dose: 3.13 mg/kg/injection, schedule: Q01DX009 (ip), vehicle: saline with Tween-80) was 94 % of control, the T/C (dose: 6.25 mg/kg/injection, schedule: Q01DX009 (ip), vehicle: saline with Tween-80) was 90 % of control and the T/C (dose: 6.25 mg/kg/injection, schedule: Q04DX003 (ip), vehicle: saline with Tween-80) was 106 % of control. The T/C (dose: 12.5 mg/kg/injection, schedule: Q01DX009 (ip), vehicle: saline with Tween-80) was 97 % of control and the T/C (dose: 12.5 mg/kg/injection, schedule: Q04DX003 (ip), vehicle: saline with Tween-80) was 94 % of control.

With `CC(C)(C)C1CCC(NC2=NCCO2)CC1` (configuration not stated) the T/C (dose: 25.0 mg/kg/injection, schedule: Q01DX001 (ip), vehicle: Klucel (hydroxypropylcellulose) (HPC)) was 103 % of control, the T/C (dose: 50.0 mg/kg/injection, schedule: Q01DX001 (ip), vehicle: Klucel (hydroxypropylcellulose) (HPC)) was 104 % of control and the T/C (dose: 50.0 mg/kg/injection, schedule: Q04DX003 (ip), vehicle: Klucel (hydroxypropylcellulose) (HPC)) was 96 % of control. For the same molecule, the T/C [8] was 93 % of control and 100 % of control and the T/C [21] was 102 % of control.

For `Cc1cc(C)cc(C(O)(c2cc(C)cc(C)c2)c2cc(C)cc(C)c2)c1`, the T/C [12] was 102 % of control, the T/C [15] was 116 % of control and the T/C [18] was 94 % of control.

For `O=C(c1ccccn1)C12CC3CC(CC(C3)C1)C2`, the T/C [12] was 97 % of control, the T/C [15] was 98 % of control and the T/C [18] was 101 % of control.

In the case of `Cc1ccc2nc3nc(-c4ccccc4)c(-c4ccccc4)nc3nc2c1`, the T/C [6] is reported as 93 % of control, the T/C [7] is reported as 94 % of control and the T/C (dose: 300.0 mg/kg/injection, schedule: Q01DX001 (ip), vehicle: other) is reported as 89 % of control.

For `O=C(O)c1ccccc1C(=O)Nc1cccc(C(F)(F)F)c1`, the T/C [20] was 101 % of control, the T/C [4] was 101 % of control and the T/C [5] was 99 % of control.

`CC1(C)OC(N)=C(C(N)=O)C1c1ccc(Cl)cc1` (configuration not stated) was tested, and the T/C [1] was 97 % of control, the T/C [2] was 95 % of control and the T/C [3] was 95 % of control.

With `O=C(O)C1C2CC3C(C2)C31.[Ag]` (configuration not stated) the T/C (dose: 20.0 mg/kg/injection, schedule: Q01DX009 (ip), vehicle: Klucel (hydroxypropylcellulose) (HPC)) was 91 % of control, the T/C (dose: 20.0 mg/kg/injection, schedule: Q04DX003 (ip), vehicle: Klucel (hydroxypropylcellulose) (HPC)) was 93 % of control and the T/C (dose: 40.0 mg/kg/injection, schedule: Q04DX003 (ip), vehicle: Klucel (hydroxypropylcellulose) (HPC)) was 89 % of control.

`C[CH2][Sn](/[CH]=C/C=C/OC)([CH2]C)[CH2]C` was tested, and the T/C (dose: 0.19 mg/kg/injection, schedule: Q01DX009 (ip), vehicle: saline) was 99 % of control, the T/C (dose: 0.39 mg/kg/injection, schedule: Q01DX009 (ip), vehicle: saline) was 94 % of control and the T/C (dose: 0.78 mg/kg/injection, schedule: Q01DX009 (ip), vehicle: saline) was 99 % of control. For the same molecule, the T/C (dose: 6.25 mg/kg/injection, schedule: Q01DX009 (ip), vehicle: saline) was 94 % of control and the T/C (dose: 12.5 mg/kg/injection, schedule: Q01DX009 (ip), vehicle: saline) was 97 % of control.

For `C1CC(C2OCOC3COCOC32)OO1` (configuration not stated), the T/C (dose: 222.0 mg/kg/injection, schedule: Q01DX Z (ip), vehicle: methylcellulose (MC)) was 89 % of control, the T/C (dose: 333.0 mg/kg/injection, schedule: Q01DX Z (ip), vehicle: methylcellulose (MC)) was 104 % of control and the T/C (dose: 500.0 mg/kg/injection, schedule: Q01DX Z (ip), vehicle: methylcellulose (MC)) was 92 % of control.

With `Cc1ccc(Cl)cc1NC(=O)Nc1cc(Cl)c(Cl)cc1C` the T/C (dose: 50.0 mg/kg/injection, schedule: Q04DX003 (ip), vehicle: saline with Tween-80) was 94 % of control and 88 % of control, the T/C [10] was 100 % of control and the T/C [19] was 95 % of control and 97 % of control. For the same molecule, the T/C [11] was 95 % of control and 106 % of control, the T/C [12] was 96 % of control and the T/C [13] was 86 % of control. For the same molecule, the T/C (dose: 200.0 mg/kg/injection, schedule: Q01DX009 (ip), vehicle: saline with Tween-80) was 93 % of control and 97 % of control, the T/C [14] was 97 % of control and 88 % of control and the T/C [16] was 89 % of control. The T/C (dose: 400.0 mg/kg/injection, schedule: Q01DX009 (ip), vehicle: saline with Tween-80) was 98 % of control and 105 % of control, the T/C [17] was 101 % of control and 92 % of control and the T/C [18] was 95 % of control and 88 % of control.

Reference: PubChem BioAssay AID248 (DTP/NCI, 2004)
